Experimental data reported in PMC5384453, “A multi-functional PEGylated gold(III) compound: potent anti-cancer properties and self-assembly into nanostructures for drug co-delivery” (Chemical Science, 2016).

Columns and labels:
[1] = system: NCM460 cells; test: Flow cytometric analysis of apoptosis with propidium iodide co-staining (Fig. S14, S15); conditions: NCM460, 2 μM
Method: Analysis of induction of apoptosis in HCT116 and NCM460 cells after incubation
with gold(III) complexes and FITC-annexin V staining by flow cytometry.
dishes respectively. The cells were incubated at 37 °C under an atmosphere of 5%
CO2 for 48 h. The culture medium was then removed, washed with PBS solution. The
cells were then incubated with culture medium containing nanostructures of 1 (2 µM)
or Au1a (2 µM; with 1 vol% DMSO) at 37 °C under an atmosphere of 5% CO2 for 24
h. All the cells were harvested, and washed with PBS solution and annexin-binding
buffer solution. The cells were collected by centrifugation at 2000 rpm for 5 min, and
re-dispersed in annexin-binding buffer solution with cell concentration of ca. 110 6
cells/mL. FITC- Annexin V (5 µL) was added to an aliquot of the cell suspension
(100 µL), and the cells were incubated at room temperature in dark for 15 min. The
solution mixture was then diluted by annexin-binding buffer solution (400 µL), kept
in ice and analyzed by flow cytometry immediately.
with gold(III) complexes by CellEvent Caspase-3/7 Green Detection Reagent
staining and flow cytometry. The procedure is similar to that using FITC-Annexin V
staining, except that the harvested cells were re-dispersed in PBS solution with 2%
BSA (w/w; 100 µL) and incubated with CellEvent Caspase-3/7 Green Detection
Reagent (2.5 µM) at 37 °C for 30 min, and subsequently stained with propidium […]

[2] = system: CHEM-5; test: In vitro cytotoxicity, MTT assay; assay type: cell-based, human; conditions: CHEM-5, MTT assay, 72 h
Method: (§1) page 7: The gold content of the nanocomposites was determined by dissolving the nanocomposites in conc. HNO3 / conc. HCl solution mixture (9:1, v/v; 30 µL), followed by ICP-MS analysis. […] The nanocomposite (10 µL) was dissolved in acetonitrile (90 µL), and subjected to gentle shaking overnight. The solution mixture was then dried under vacuum, and re- dispersed in 0.1 vol% formic acid in water/acetonitrile (7/3, v/v; 1 mL) solution mixture. […] The mobile phase was 0.1 vol% formic acid in water/acetonitrile (7:3, v/v) solution mixture. […] The cells were then treated with a serial concentration of gold(III) complexes and incubated at 37 °C under a 5% CO2 atmosphere for 72 h. […] After incubation for 72 h, MTT in PBS solution (5 mg/mL, 10 μL) was added to each well. The plates were incubated at 37 °C under a 5% CO2 atmosphere for another 4 h, and the cells were lysed by the addition of SDS solution (10%, w/w) with 0.01 M HCl (100 μL). After incubation in dark at 37 °C overnight, the cell viability after treatment was determined by a microtitre plate reader monitoring at the absorbance at 590 nm, P.7 page 8: which reflected the amount of blue formazan formed. IC50 values were then determined by CompuSyn S6 from three independent measurements. Study on the release of hydrolyzed product from 1 and 2 in aqueous buffer solutions by ICP-MS. […] At a predetermined time, an aliquot of solution was removed and dissolved in HNO3/HCl solution mixture (9:1, v/v; volume of aliquot: volume of acid mixture = 1:3). The solution mixture was heated at 65 °C with shaking overnight, and the gold content was determined by ICP-MS from three independent aliquots. […] 37 °C for 24 h. […] Analysis of cell lysate of HCT116 cells treated with complexes 1 and 3 by UPLC- QTOF-MS. […] All the cells were harvested, washed with PBS solution for three times and dispersed in ice-cold water. The cell suspension was then added to ice-cold acetonitrile (1:3, v/v), vortexed for 5 min, and centrifuged at 10,000 rpm at 4 °C. The supernatant was collected, dried under vacuum and the solid was re-dissolved in acetonitrile (HPLC grade) for UPLC- QTOF-MS experiments. The mobile phase was a mixture of 0.1% formic acid in water (phase A) and 0.1% formic acid in acetonitrile (phase B). […] P.46

[3] = system: L02; test: In vitro cytotoxicity, MTT assay; assay type: cell-based, human; conditions: 72 h
Method: as §1

[4] = mouse
Method: The anti-tumor experiments using mice were approved by the animal ethics committees of Jinan University and The University of Hong Kong. […]
point of tumor growth inhibition study, the mice treated with complex 1, 3 and Au1a, respectively, were sacrificed and tissues including liver, spleen, lung, kidney and heart were harvested. The tissues were digested with 10% HCl in concentrated HNO3 (0.1 g of tissue/1 mL). The solution mixture was heated at 60 °C for 15 h, and then diluted 50 times by ultra-pure water for ICP-MS analysis.
Determination of in vivo biodistribution of complex 1, 3 and Au1a by ICP-MS.
Nude mice bearing HCT116 xenografts were treated with 1 (13 mg/kg), or equal molar amount of Au1a (2 mg/kg) or 3 (2 mg/kg) through intravenous injection. After 24 h of the injection, the mice were sacrificed and tissues from tumor, liver, spleen, lung, kidney and heart were harvested. The tissues were digested with 10% HCl in concentrated HNO3 (0.1 g of tissue/1 mL). The solution mixture was heated at 60 °C for 15 h, and then diluted 50 times by ultra-pure water for ICP-MS analysis.
Analysis of tumor tissue from mice treated with complexes 1 by UPLC-QTOF-MS. At the end point of tumor growth inhibition study, the mice treated with solvent control or complex 1 were sacrificed and the tumor tissues were harvested, followed by homogenization in 50% ice-cold acetonitrile (0.1 g/300 µL). […]

Row | Compound | viability (Q3 region, corrected) ([1]; 24 h) [%] | viability (Q3 region, corrected) ([1]; 36 h) [%] | IC50 [2] [µM] | IC50 [3] [µM] | hydrolysis in vivo (species found in tumor tissues) [4]
1 | C1=Cc2nc1c(-c1ccccc1)c1ccc([n-]1)c(-c1ccccc1)c1nc(c(-c3ccccc3)c3ccc([n-]3)c2-c2ccccc2)C=C1.[Au+3].[Cl-] [Au1a, [Au(TPP)]Cl, reference compound] | 61.14 | 56.64 | – | – | –
2 | COC(=O)c1ccc(C2=C3C=CC(=N3)C(c3ccccc3)=c3ccc4[n]3[Au+][n]3c(ccc32)C(c2ccccc2)=C2C=CC(=N2)C=4c2ccccc2)cc1.[Cl-] [Compound 3, [Au(TPP–COOCH3)]^+] | – | – | 3.5 ± 0.03 | 0.2 ± 0.05 | –
3 | [Au(TPP–COO–PEG5000–OCH3)]Cl [Compound 1] | – | – | 11.3 ± 0.05 | 3.8 ± 0.1 | [Au(TPP–COOH)]^+ was found in the UPLC-QTOF-MS of tumor tissues
